Reference: patent US11427615B2, “Peptide compound and application thereof, and composition containing peptide compound” (XDCEXPLORER (SHANGHAI) CO., LTD., priority 2017, dated 2022)
Non-standard residues stand in square brackets, D forms with d. Residues, ends and D or L forms follow the SMILES beside them. *: point of attachment. X5 = CCCCCCCCCCCC(=O)NCCOCCOCCOCCOCCOCCSSCCCC(=O)*; PEG8 = NCCOCCOCCOCCOCCOCCOCCOCCOCCC(=O)O; Arg(Me) = CNC(=N)NCCC[C@H](N)C(=O)O; Palmitoyl = CCCCCCCCCCCCCCCC(=O)*; Hyp = O=C(O)[C@@H]1C[C@@H](O)CN1; AllylGly = C=CC[C@H](N)C(=O)O; azaGly = NNC(=O)O

What was measured:
[1] = target: T1, human kiss1 receptor (GPR54) (Homo sapiens, UniProt Q969F8); assay: Kiss1 receptor (GPR54) binding activity of agonists, FRET detection in NFAT-bla CHO-K1 cells; format: cell-based; conditions: GPR54; measured according to the method of effect Embodiment 1; preliminary data; read-out: Preliminary measurement data (GPR54) EC50
T1 construct: host or cells: NFAT-bla CHO-K1 cells (Chinese hamster ovary), purchased recombinant cell line
T1 sequence (Q969F8 whole entry): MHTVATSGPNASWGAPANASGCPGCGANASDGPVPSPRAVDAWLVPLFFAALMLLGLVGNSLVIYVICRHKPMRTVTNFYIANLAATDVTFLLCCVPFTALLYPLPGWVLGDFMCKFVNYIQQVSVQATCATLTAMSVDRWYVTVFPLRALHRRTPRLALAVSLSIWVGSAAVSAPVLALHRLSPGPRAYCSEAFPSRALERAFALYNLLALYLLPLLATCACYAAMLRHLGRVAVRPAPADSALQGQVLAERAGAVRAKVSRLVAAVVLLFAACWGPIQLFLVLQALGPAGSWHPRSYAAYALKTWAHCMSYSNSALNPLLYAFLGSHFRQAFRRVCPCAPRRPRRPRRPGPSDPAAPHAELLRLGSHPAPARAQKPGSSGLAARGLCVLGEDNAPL

[2] = Plasma stability, LC-MS/MS; format: in vitro ADME; conditions: rat plasma, 37° C., final concentration 500 ng/ml, time points 0 minutes, 1, 2 and 4 hours; calculated half-life; read-out: Rat plasma (T½ (h)) (converted)
Description: Effect Embodiment 2 Experimental Data on Plasma Stability of Some Compounds
1. Preparation of 50 mM Phosphate Buffer:
The 5.750 g Na2HPO4, 1.141 g NaH2PO4. and 4.095 g NaCl (Shanghai Titan) weighed was dissolved in 1000 mL ultrapure water and the pH was adjusted to 7.4 to give 50 mM phosphate buffer containing 70 mM NaCl. The prepared phosphoric acid buffer solution was stored in the refrigerator at 4° C. and was valid for one week.
2. Preparation of compound stock solution:
1). 5 mg/mL of test compound: 5 mg of compound was weighted and dissolved in 1 mL of DMSO.
2). 20 mM control: 2.728 mg of Fuka was dissolved in 0.5 mL of DMSO. 3.878 mg of benzalkonium bromide was dissolved in 0.5 mL of DMSO (Amresco).
3. Preparation of experimental plasma:
The frozen plasma (human: Shanghai wise chemistry; Rats and mice: Shanghai Sciple-Bikai; Dogs and monkeys: Suzhou Xishan Zhongke) were taken out of the −80° C. refrigerator, immediately placed in a 37° C. water bath, slightly shaken to melt it, then the thawed plasma was poured into a centrifuge tube, centrifuged at 3000 rpm for 8 min, and the supernatant was taken for experiments. The pH value of plasma was detected by a pH Meter & Sensor (METTLER TOLEDO). Only plasma with a pH value between 7.4 and 8 was used in the experiment. The plasma was placed on an ice bath for later use.
4. Preparation of administration solution:
1). 125 µg/ml test compound solution: 5 μL of 5 mg/mL test compound (see step 2) was added into 195 μL DMSO; 500 μM control solution: 20 mM control stock solution (see step 2) was added to 195 μL DMSO.
2). 0.5% BSA phosphate buffer solution: 0.05 g BSA was added to 10 mL phosphate buffer solution (see step 1);
3). 5 µg/ml of test compound administration solution: 40 μL of 125 μg/mL of test compound solution was added into 960 μL 0.5% BSA phosphate buffer solution, stirred and mixed evenly, and the administration solution was preheated in a 37° C. water bath for 5 minutes.
20 μM reference substance administration solution: 40 μL of 500 μM reference substance administration solution was added into 960 μL 0.5% BSA phosphate buffer solution, stirred and mixed evenly, and the administration solution was preheated in a 37° C. water bath for 5 minutes.
5. 10 μL of 5 μg/mL of the test compound and 20 μM of the control substance administration solution were respectively added to the wells set at different time points (0 minutes, 1 hour, 2 hours and 4 hours) on the 96-well plate, and the number of duplicate samples was 3.
6. 500 μL of ACN (IS) containing 5% FA was added to the well set at 0 minute hour, then 90 μL of plasma was added, after mixing, sealing film was pasted and placed at 4° C. (number of duplicate samples was 3).
7. 90 μL of plasma was added to the wells with set time points of 1 hour, 2 hours and 4 hours respectively, the number of duplicate samples was 3, and timing was started (the final concentration of the test compound was 500 ng/ml; The control was 2 μM).
9. All samples (0 minutes, 1 hour, 2 hours and 4 hours) at different time points on a 96-well plate were shaken for 10 minutes at 600 rpm/min on an oscillator (MTS 2/4, IKA), and then the samples were centrifuged for 15 minutes at 5594×g in a centrifuge (Multifuge×3R, thermo Fisher).
10. 150 μL of supernatant was taken from the centrifuged sample and sent to LC-MS/MS for analysis (conventional polypeptide LC-MS/MS analysis method).

Row | SMILES | EC50 [1] [pM] | half-life at 500 ng/ml [2] [h]
1 | CCCCCCCCCCCCCCCC(=O)NCCOCCOCCOCCOCCOCCOCCOCCOCCC(=O)N[C@H](Cc1ccc(O)cc1)C(=O)N1C[C@H](O)C[C@H]1C(=O)N[C@@H](CC(N)=O)C(=O)N[C@H](C(=O)N[C@@H](Cc1ccccc1)C(=O)NNC(=O)N[C@@H](CC(C)C)C(=O)N[C@@H](CCCNC(=N)NC)C(=O)N[C@@H](Cc1c[nH]c2ccccc12)C(N)=O)[C@@H](C)O [YA-298, Palm-PEG8-D-Tyr-Hyp-Asn-Thr-Phe-azaGly-Leu-Arg(Me)-Trp-NH2] ({Palmitoyl-PEG8}-[dY][Hyp]NTF[azaGly]L[Arg(Me)]W-NH2) | 16 | 12.7
2 | CCCCCCCCCCCC(=O)NCCOCCOCCOCCOCCOCCSSCCCC(=O)N[C@H](Cc1ccc(O)cc1)C(=O)N1C[C@H](O)C[C@H]1C(=O)N[C@@H](CC(N)=O)C(=O)N[C@H](C(=O)N[C@@H](Cc1ccccc1)C(=O)NNC(=O)N[C@@H](CC(C)C)C(=O)N[C@@H](CCCNC(=N)NC)C(=O)N[C@@H](Cc1c[nH]c2ccccc12)C(N)=O)[C@@H](C)O [YA-324, Dodecanoyl-(NH-PEG5-CH2CH2S)-(4-thiol-butanoyl)-(D-Tyr)-Hyp-Asn-Thr-Phe-azaG-Leu-Arg(Me)-Trp-NH2] (X5-[dY][Hyp]NTF[azaGly]L[Arg(Me)]W-NH2) | 7 | 0.29
3 | C=CC[C@H](NC(=O)[C@H](Cc1ccccc1)NC(=O)[C@@H](NC(=O)[C@H](CC(N)=O)NC(=O)[C@@H]1C[C@@H](O)CN1C(=O)[C@@H](Cc1ccc(O)cc1)NC(=O)CCOCCOCCOCCOCCOCCOCCOCCOCCNC(=O)CCCCCCCCCCCCCCC)[C@@H](C)O)C(=O)N[C@@H](CC(C)C)C(=O)N[C@@H](CCCNC(=N)NC)C(=O)N[C@@H](Cc1c[nH]c2ccccc12)C(N)=O [YA-360, Palm-PEG8-Gly-Gly-(D-Tyr)-Hyp-Asn-Thr-Phe-A1g-Leu-Arg(Me)-Trp-NH2] ({Palmitoyl-PEG8}-[dY][Hyp]NTF[AllylGly]L[Arg(Me)]W-NH2) | 6 | 79.9
